Measurements taken from patent US9487819B2, “Quantitative genetically encoded optical reporter construct” (Cornell University, priority 2009, dated 2016).

Experiments:
[1] = system: [ATP] in nerve terminals of neurons; assay: Presynaptic [ATP] at rest reported by Syn-ATP under metabolic inhibitors; type: cell-based, rat; details: resting neurons, TTX to block action potential firing (FIG. 15)
Experimental: All experiments were performed using dissociated primary hippocampal neurons according to procedures that have been previously described in Ryan T A. J. Neurosci 19:1317-1323 (1999). Briefly, hippocampi from newborn rats (P2-P4) were removed and dissected. Prior to cell dissociation, the dendate gyrus was removed leaving a relatively pure population of CA3 & CA1 excitatory neurons and interneurons. […] For fluorescence and luminescence experiments cover slips were mounted in a rapid switching low volume perfusion chamber equipped with stimulus electrodes and mounted on the stage of an inverted microscope equipped with EMCCD detection and laser-based wide-field illumination. Chemiluminescence was imaged using the same apparatus as the fluorescence, however no excitation source was used during the detection of light.
On DIV 14-25, neurons were mounted in a custom-built physiological perfusion chamber with temperature control that allows direct control of field stimulation to drive action potential firing. […] Luminescence and fluorescence imaging were performed using an EM-CCD Andor Ixon, thinned back-illuminated sensor through a 1.3 NA 40× fluar objective. Neurons expressing Syn-ATP were perfused with 20 mM luciferin, one minute prior to and throughout the period during which the luminescence images was obtained. […]

[2] = maximal number of photons emitted; cited from earlier work

Molecule | change of [ATP] at rest [1] | kcat [2]
O=CC[C@@H](O)[C@H](O)[C@H](O)CO [2-deoxyglucose] | decreases | –
CC[C@H]1/C=C/C=C/C[C@@H](C)[C@H](O)[C@@](C)(O)C(=O)[C@@H](C)[C@H](O)[C@@H](C)C(=O)[C@@H](C)[C@H](O)[C@@H](C)/C=C/C(=O)O[C@@H]2[C@H](C)[C@H](CC1)O[C@]1(CC[C@H](C)[C@H](C[C@@H](C)O)O1)[C@H]2C [oligomycin] | does not change | –
Photonus pyralis luciferase: 62 kD firefly luciferase, SEQ ID NO: 1 (protein, listed as Photonis pyralis) MEDAKNIKKGPAPFYPLEDGTAGEQLHKAMKRYALVPGTIAFTDAHIEVDITYAEYFEMSVRLAEAMKRYGLNTNHRIVVCSENSLQFFMPVLGALFIGVAVAPANDIYNERELLNSMGISQPTVVFVSKKGLQKILNVQKKLPIIQKIIIMDSKTDYQGFQSMYTFVTSHLPPGFNEYDFVPESFDRDKTIALIMNSSGSTGLPKGVALPHRTACVRFSHARDPIFGNQIIPDTAILSVVPFHHGFGMFTTLGYLICGFRVVLMYRFEEELFLRSLQDYKIQSALLVPTLFSFFAKSTLIDKYDLSNLHEIASGGAPLSKEVGEAVAKRFHLPGIRQGYGLTETTSAILITPEGDDKPGAVGKVVPFFEAKVVDLDTGKTLGVNQRGELCVRGPMIMSGYVNNPEATNALIDKDGWLHSGDIAYWDEDEHFFIVDRLKSLIKYKGYQVAPAELESILLQHPNIFDAGVAGLPDDDAGELPAAVVVLEHGKTMTEKEIVDYVASQVTTAKKLRGGVVFVDEVPKGLTGKLDARKIREILIKAKKGGKIAV | – | approximately 1.6 per sec
